Data taken from US6376551B1, “Treatment of chronic fatigue syndrome” (Knoll Pharmaceutical Company, priority 1999, dated 2002).

Tests used:
[1] = molecular target: [3H]Noradenaline reuptake in rat brain tissue; assay: in vitro [3H]noradrenaline reuptake inhibition in rat brain tissue; assay type: biochemical; settings: means of >3 separate determinations
[2] = molecular target: [3H]Dopamine reuptake in rat brain tissue; assay: in vitro [3H]dopamine reuptake inhibition in rat brain tissue; assay type: biochemical; settings: means of >3 separate determinations

| Structure (SMILES) | Ki [1] | Ki [2] |
| --- | --- | --- |
| CC(NC(C)(C)C)C(=O)c1cccc(Cl)c1 (stereo not shown) [Bupropion] | 2590 nM | 409 nM |
| COc1ccc(C(CN(C)C)C2(O)CCCCC2)cc1 (stereo not shown) [Venlafaxine] | 196 nM | 2590 nM |
